Laboratory results: publication PMC4008314 (Clinical cancer research : an official journal of the …, 2012)
Like-named read-outs stand apart in the source and are kept apart here.

Tests used:
[1] = tested on: refractory leukemias (AML and FLT3ITD); test: Response evaluation, leukemias; type: in vivo, children; settings: 2 patients with AML and FLT3ITD
RCCs = settings: adults with RCCs; cited from earlier work
plasma VEGF = settings: paired samples (n = 26), baseline vs end of cycle 1
endoglin = settings: paired samples (n = 26), baseline vs end of cycle 1
refractory leukemias = settings: cited from earlier work
refractory solid tumors = test: Response evaluation, solid tumors; type: in vivo, children
multiple tumor types = settings: cited from earlier work
[2] = tested on: placental growth factor (PlGF); test: Plasma PlGF by ELISA, baseline vs steady state; type: in vivo, children; settings: at steady state vs baseline, P ≤ 0.001
clinical = settings: human, in vivo
[3] = tested on: circulating endothelial progenitor cells (CEPC); test: Circulating endothelial progenitor cells by fluorescence-activated cell sorter; type: in vivo, children; settings: paired samples (n = 21), baseline vs end of cycle 1
advanced HCCs = settings: adults with advanced HCCs; cited from earlier work
[4] = cited from earlier work
[5] = in vivo
[6] = cited from earlier work; remark: listed apart in the source
[7] = cited from earlier work; remark: listed apart in the source

Question: Which results are given for CNC(=O)c1cc(Oc2ccc(NC(=O)Nc3ccc(Cl)c(C(F)(F)F)c3)cc2)ccn1 [Sorafenib]?
Answer: bone marrow blasts [1]: less than 5%; objective response (RCCs): 10%; plasma VEGF concentration, change (plasma VEGF): no change; plasma endoglin concentration, change (endoglin): no change; sorafenib steady-state (day 7) concentration (refractory leukemias; 150 mg/m^2, children with refractory leukemia): 7.0 ± 1.8 µg/mL; sorafenib steady-state (day 7) concentration (refractory leukemias; 200 mg/m^2, children with refractory leukemia): 6.5 ± 3.6 µg/mL; patients with complete remission (refractory leukemias; after combination therapy): 6; patients with decreased blast percentages (refractory leukemias; by day 8): 10 of 12; conversion of sorafenib to the active N-oxide metabolite (refractory leukemias; children vs that reported in adult patients): much higher rate of conversion; incidence of grade 2 and 3 hand foot skin reactions and rashes (refractory leukemias; children with leukemia, sorafenib in combination): 8 of 12; tumor shrinkage (refractory solid tumors; 1 patient (#24) with synovial sarcoma, after cycle 1, progression after cycle 2): more than 40%; objective responses (refractory solid tumors; patients with solid tumors): no confirmed objective responses; patients with stable disease for 4 or more cycles (refractory solid tumors; solid tumor patients): 14; in vivo antitumor activity (multiple tumor types): growth inhibition observed in multiple tumor types; PlGF, change [2]: increase; half-life (clinical): ≥ 24 h; AUC(0-t) (clinical; 130 mg/m2, AUC0–24h, day 1): 20000 ng·h/mL; Tmax (clinical; 130 mg/m2, Tmax, day 1): 7.9 h; Tmax (clinical; 150 mg/m2, Tmax, steady state): 3 h; AUC(0-t) (clinical; 200 mg/m2, AUC0–24h, day 1): 19000 ng·h/mL; Cmax (clinical; 200 mg/m2, Cmax, day 1): 1000 ng/mL; AUC(0-t) (clinical; 200 mg/m2, median steady-state AUC0–12h): 55700 ng·h/mL; AUC(0-t) (clinical; 250 mg/m2, AUC0–24h, day 1): 27600 ng·h/mL; Tmax (clinical; 250 mg/m2, Tmax, day 1): 8 h; Tmax (clinical; […]2, Tmax, day 1): 5 h; AUC(0-t) (clinical; mean (SD) AUC0–12h steady state): 61200 ng·h/mL; Cmax (clinical; po, 130 mg/m2, Cmax, day 1): 1500 ng/mL; AUC(0-t) (clinical; po, 150 mg/m2, AUC0–12h, steady state): 49700 ng·h/mL; AUC(0-t) (clinical; po, 150 mg/m2, AUC0–24h, day 1): 28300 ng·h/mL; Cmax (clinical; po, 150 mg/m2, Cmax, day 1): 1900 ng/mL; AUC(0-t) (clinical; po, 200 mg/m2, AUC0–12h, steady state): 60200 ng·h/mL; AUC(0-t) (clinical; po, 200 mg/m2, AUC0–24h, day 1): 27300 ng·h/mL; Cmax (clinical; po, 200 mg/m2, Cmax, day 1): 1600 ng/mL; Cmax (clinical; po, 200 mg/m2, Cmax, steady state): 8300 ng/mL; Tmax (clinical; po, 200 mg/m2, Tmax, steady state): 3.4 h; Tmax (clinical; po, […]2, Tmax, day 1): 5 h; CEPC number, change [3]: no change; objective response (advanced HCCs): 2%; in vitro activity [4]: low micromolar concentrations; Alopecia grade 1 (non-DLT) ([5]; human): 1; Anorexia grade 2 (non-DLT) ([5]; human): 1; Fatigue grade 2 (non-DLT) ([5]; human): 2; Fever grade 1 (non-DLT) ([5]; human): 1; Hand-foot skin reaction grade 2 (non-DLT) ([5]; human): 2; Headache grade 1 (non-DLT) ([5]; human): 1; Headache grade 2 (non-DLT) ([5]; human): 1; Hemoglobin grade 1 (non-DLT) ([5]; human): 4; Hemoglobin grade 2 (non-DLT) ([5]; human): 1; Hemoglobin grade 3 (non-DLT) ([5]; human): 1; Hypertension grade 1 (non-DLT) ([5]; human): 3; Hypertension grade 3 (non-DLT) ([5]; human): 1; Hypoalbuminemia grade 1 (non-DLT) ([5]; human): 1; Hypocalcemia grade 1 (non-DLT) ([5]; human): 3; Hypophosphatemia grade 2 (non-DLT) ([5]; human): 1; Increased ALT grade 2 (non-DLT) ([5]; human): 1; Increased AST grade 2 (non-DLT) ([5]; human): 1; Increased bilirubin grade 1 (non-DLT) ([5]; human): 1; Increased bilirubin grade 2 (non-DLT) ([5]; human): 1; Leukopenia grade 1 (non-DLT) ([5]; human): 4; Leukopenia grade 2 (non-DLT) ([5]; human): 2; Leukopenia grade 3 (non-DLT) ([5]; human): 2; Lymphopenia grade 1 (non-DLT) ([5]; human): 2; Lymphopenia grade 2 (non-DLT) ([5]; human): 2; Lymphopenia grade 3 (non-DLT) ([5]; human): 1; Nausea grade 3 (non-DLT) ([5]; human): 1; Neutropenia grade 1 (non-DLT) ([5]; human): 3; Neutropenia grade 2 (non-DLT) ([5]; human): 1; Neutropenia grade 3 (non-DLT) ([5]; human): 2; Pain, Other (jaw) grade 1 (non-DLT) ([5]; human): 1; Thrombocytopenia grade 2 (non-DLT) ([5]; human): 1; Vomiting grade 1 (non-DLT) ([5]; human): 1; Vomiting grade 3 (non-DLT) ([5]; human): 1; patients who developed a DLT after cycle 1 ([5]; human): 5; Alopecia grade 1 (non-DLT) ([5]; human, 28 day): 2; Anorexia grade 1 (non-DLT) ([5]; human, 28 day): 4; Diarrhea grade 2 (non-DLT) ([5]; human, 28 day): 1; Fatigue grade 1 (non-DLT) ([5]; human, 28 day): 4; Fatigue grade 2 (non-DLT) ([5]; human, 28 day): 2; Fever grade 1 (non-DLT) ([5]; human, 28 day): 2; Hand-foot skin reaction grade 1 (non-DLT) ([5]; human, 28 day): 1; Hand-foot skin reaction grade 2 (non-DLT) ([5]; human, 28 day): 1; Headache grade 1 (non-DLT) ([5]; human, 28 day): 3; Headache grade 2 (non-DLT) ([5]; human, 28 day): 1; Hypoalbuminemia grade 1 (non-DLT) ([5]; human, 28 day): 1; Hypoalbuminemia grade 2 (non-DLT) ([5]; human, 28 day): 1; Hypocalcemia grade 1 (non-DLT) ([5]; human, 28 day): 3; Hypophosphatemia grade 2 (non-DLT) ([5]; human, 28 day): 2; Increased ALT grade 2 (non-DLT) ([5]; human, 28 day): 1; Increased AST grade 2 (non-DLT) ([5]; human, 28 day): 1; Increased bilirubin grade 2 (non-DLT) ([5]; human, 28 day): 1; Lymphopenia grade 1 (non-DLT) ([5]; human, 28 day): 1; Lymphopenia grade 3 (non-DLT) ([5]; human, 28 day): 1; Mucositis/stomatitis grade 1 (non-DLT) ([5]; human, 28 day): 2; Nausea grade 2 (non-DLT) ([5]; human, 28 day): 2; Rash/Desquamation grade 1 (non-DLT) ([5]; human, 28 day): 3; Rash/Desquamation grade 2 (non-DLT) ([5]; human, 28 day): 1; Thrombocytopenia grade 1 (non-DLT) ([5]; human, 28 day): 4; Thrombocytopenia grade 2 (non-DLT) ([5]; human, 28 day): 1; Hand-foot skin reaction grade 1 (non-DLT) ([5]; human, 28 days): 1; Hemoglobin grade 1 (non-DLT) ([5]; human, 28 days): 3; Hemoglobin grade 2 (non-DLT) ([5]; human, 28 days): 1; Hemoglobin grade 3 (non-DLT) ([5]; human, 28 days): 2; Hypertension grade 1 (non-DLT) ([5]; human, 28 days): 4; Hypertension grade 2 (non-DLT) ([5]; human, 28 days): 1; Hyponatremia grade 1 (non-DLT) ([5]; human, 28 days): 3; Leukopenia grade 1 (non-DLT) ([5]; human, 28 days): 5; Leukopenia grade 2 (non-DLT) ([5]; human, 28 days): 2; Leukopenia grade 3 (non-DLT) ([5]; human, 28 days): 2; Pain, Other (forearm) grade 1 (non-DLT) ([5]; human, 28 days): 1; Rash/Desquamation grade 2 (non-DLT) ([5]; human, 28 days): 3; recommended phase II dose ([5]; human, 28 days): 200 mg/m^2/dose; Lymphopenia grade 1 (non-DLT) ([5]; human, 28 days (course 1)): 2; Lymphopenia grade 2 (non-DLT) ([5]; human, 28 days (course 1)): 1; Lymphopenia grade 3 (non-DLT) ([5]; human, 28 days (course 1)): 2; Neutropenia grade 1 (non-DLT) ([5]; human, 28 days (course 1)): 5; Neutropenia grade 2 (non-DLT) ([5]; human, 28 days (course 1)): 1; Neutropenia grade 3 (non-DLT) ([5]; human, 28 days (course 1)): 2; Thrombocytopenia grade 1 (non-DLT) ([5]; human, 28 days (course 1)): 4; bony abnormalities on serial plain radiographs [5]: No bony abnormalities; AUC0–12h ([6]; adults, 400-mg dose after multiple doses): 47800 to 76500 ng·h/mL; adults requiring dose reductions with chronic administration ([6]; mostly due to skin toxicity and diarrhea): Up to a third; recommended fixed dose ([6]; twice daily, adults): 400 mg; incidence of grade 2 and 3 hand foot skin reactions and rashes ([7]; children with solid tumors, sorafenib in combination): 5 of 19; recommended phase II dose ([7]; twice daily, with bevacizumab and cyclophosphamide): 90 mg/m^2/dose
